Patent publication US7973162B2, “Modulators of muscarinic receptors” (Vertex Pharmaceuticals Incorporated, priority 2007, dated 2011)

Key:
Format in all cases: cell-based
[1] = molecular target: T1, M4 muscarinic receptor (Homo sapiens, UniProt P08173); experiment: Functional mobilization of intracellular calcium (FLIPR), M4-CHO cells; conditions: for Emax / M4 Efficacy: 100% efficacy = maximum response obtained with the Carbachol control; for EC50: CHO cells expressing M4, calcium mobilization
T1 construct: expressed in transfected cells; host or cells: CHO (M4-CHO)
T1 sequence (P08173 1-479): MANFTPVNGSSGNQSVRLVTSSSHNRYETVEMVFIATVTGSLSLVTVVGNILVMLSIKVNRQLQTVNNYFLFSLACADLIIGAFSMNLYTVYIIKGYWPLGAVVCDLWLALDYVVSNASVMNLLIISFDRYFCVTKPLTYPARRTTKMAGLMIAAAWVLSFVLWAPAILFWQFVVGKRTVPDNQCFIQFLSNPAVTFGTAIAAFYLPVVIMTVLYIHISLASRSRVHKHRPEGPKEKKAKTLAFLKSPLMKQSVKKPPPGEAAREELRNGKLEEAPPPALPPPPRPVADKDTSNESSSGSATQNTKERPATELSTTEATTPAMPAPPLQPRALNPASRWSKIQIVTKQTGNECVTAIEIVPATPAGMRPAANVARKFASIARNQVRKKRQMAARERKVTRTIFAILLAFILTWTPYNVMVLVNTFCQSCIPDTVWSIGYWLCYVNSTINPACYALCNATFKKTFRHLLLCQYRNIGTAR
Description: (§1) Functional Mobilization of Intracellular Calcium to Determine Muscarinic Receptor Activity:
(§2) CHO cells expressing muscarinic receptors (M1 to M5) are grown as monolayers in tissue culture flasks at 37° C. in a humidified atmosphere containing 5% CO2 and passaged every 3-5 days. The growth media is Dulbecco's modified eagles medium (DMEM, Gibco Cat# 12430-054), containing 25 mM Hepes and supplemented with Fetal Bovine Serum (Hyclone, cat #SH30071.03), 0.1 mM of MEM non-essential amino acids (GIBCO, Cat #11140-050), 1 mM MEM Sodium Pyruvate (GIBCO Cat #11360-070) and 100 units/ml of Penicillin G and 100 μg/ml of Streptomycin (GIBCO Cat #15140-122). The recombinant muscarinic receptor cell lines are grown under antibiotic pressure with media containing 25 μg/ml zeocin and 500 μg/ml G418 (M1-CHO), 4 μg/ml puromycin, 50 μg/ml zeocin and 2.5 μg/ml blasticidin (M2 and M4-CHO) or 50 μg/ml zeocin and 4 μg/ml puromycin (M3 and M5-CHO).
(§3) Cells are harvested at 80-90% confluence using Versene (GIBCO Cat #15040-066), collected by centrifugation and seeded 18-24 hrs prior to running the calcium assay at a density of 5,000-10,000 cells/well in […], clear-bottomed 384-well plates (BD Biocoat, poly-D-lysine, Cat#356663). The day of the experiment, the cells are washed with a plate washer (Bioteck Instruments, ELX 405) using bath1 buffer (140-mM NaCl, 4.5-mM KCl, 2-mM CaCl2, 1-mM MgCl2, 10-mM Hepes-Na, 10-mM Glucose, pH 7.4, with NaOH) containing 1 mM Probenecid. Next, the calcium dye Fluo-3 (25 μl/well of Fluo-3 AM at 4 μM, Molecular Probes F-1241, in Bath 1 buffer containing 1 mM Probenecid) is added to the 25 μl of Bath 1 remaining in each well after the plate wash and the dye is loaded at 37° C. in the tissue culture incubator for 60-90 min. The fluorescent dye is removed using the plate washer with Bath 1 containing 1 mM Probenecid, leaving 25 μl/well of this solution after the wash. Alternatively, cells can be loaded with the calcium indicator from Molecular Devices (Calcium 3 Assay Reagents, Cat #R7181) adding 5 μl of a 5× solution dye in Bath 1 containing 1 mM Probenecid (10 ml per dye flask cat #R7182 to generate a solution 20×) to 20 μl of the same buffer. After loading for 60 min, the experiment can be run without having to remove the dye.
(§4) Compounds are prepared at a 2× fold concentration in a 96-well plate (round bottom, Costar Corning cat #3656), by reconstituting the pre-spotted compounds in bath 1 containing 1 mM probenecid. The final concentration DMSO is 0.5%, and the amount of DMSO is normalized across the assay plate. To determine an agonist action of the compounds on muscarinic receptors, the reconstituted compounds are added (25 μl compound/well) to the cell assay plate (containing 25 μl/well) using the multi-channel robotic system of the FLIPR 3 Instrument (Molecular Devices, Sunnyvale, Calif.). To determine a functional inhibitory action of the compounds on muscarinic receptors, the reconstituted compounds are added (25 μl compound/well) to the assay plate and pre-incubated for 15 min prior to adding 25 μl of Carbachol at 3× the EC80 for each muscarinic subtype. Alternatively, the compounds can be co-applied simultaneously with the agonist. In both assay modes, the fluorescence is recorded for 60 sec (excitation wavelength is […] and emission wavelength 540 nm) using the FLIPR 3 instrument.
(§5) The potency, efficacy and selectivity of the muscarinic compounds were evaluated by screening the compound activity across the whole family (M1 to M5 cells). Compounds were also screened for activity on other proteins such as other GPCRs and ion channels to determine selectivity on M4 receptors.
(§6) Examples of activities and efficacies of the muscarinic compounds of formulae (I, Ia, and Ib) on modulating M1 and M4 receptors are shown below in Table 3. […]

[2] = molecular target: T2, M1 muscarinic receptor (Homo sapiens, UniProt P11229); experiment: Functional mobilization of intracellular calcium (FLIPR), M1-CHO cells; conditions: for Emax / M1 Efficacy: 100% efficacy = maximum response obtained with the Carbachol control; for EC50: CHO cells expressing M1, calcium mobilization
T2 construct: expressed in transfected cells; host or cells: CHO (M1-CHO)
T2 sequence (P11229 1-460): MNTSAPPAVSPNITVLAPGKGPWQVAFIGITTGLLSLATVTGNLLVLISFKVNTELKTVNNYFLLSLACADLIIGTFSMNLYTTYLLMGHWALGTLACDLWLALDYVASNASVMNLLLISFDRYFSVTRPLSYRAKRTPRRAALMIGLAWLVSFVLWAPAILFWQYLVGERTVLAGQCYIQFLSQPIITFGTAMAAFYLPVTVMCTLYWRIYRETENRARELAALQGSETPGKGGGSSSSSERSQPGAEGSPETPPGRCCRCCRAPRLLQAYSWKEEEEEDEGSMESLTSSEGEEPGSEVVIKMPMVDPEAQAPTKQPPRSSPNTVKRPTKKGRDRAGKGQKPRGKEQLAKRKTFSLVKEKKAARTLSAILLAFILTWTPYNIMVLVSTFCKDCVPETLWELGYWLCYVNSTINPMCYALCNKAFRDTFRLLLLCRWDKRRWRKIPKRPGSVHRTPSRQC
Description: as §1, §2, §3, §4, §5, §6

[3] = molecular target: T3, M3 muscarinic receptor (Homo sapiens, UniProt P20309); experiment: Functional mobilization of intracellular calcium (FLIPR), M3-CHO cells; conditions: for Emax / M3 Efficacy: 100% efficacy = maximum response obtained with the Carbachol control; for EC50: CHO cells expressing M3, calcium mobilization
T3 construct: expressed in transfected cells; host or cells: CHO (M3-CHO)
Description: as §1, §2, §3, §4, §5, §6

[4] = molecular target: T4, M2 muscarinic receptor (Homo sapiens, UniProt P08172); experiment: Functional mobilization of intracellular calcium (FLIPR), M2-CHO cells; conditions: for Emax / M2 Efficacy: 100% efficacy = maximum response obtained with the Carbachol control; for EC50: CHO cells expressing M2, calcium mobilization
T4 construct: expressed in transfected cells; host or cells: CHO (M2-CHO)
T4 sequence (P08172 1-466): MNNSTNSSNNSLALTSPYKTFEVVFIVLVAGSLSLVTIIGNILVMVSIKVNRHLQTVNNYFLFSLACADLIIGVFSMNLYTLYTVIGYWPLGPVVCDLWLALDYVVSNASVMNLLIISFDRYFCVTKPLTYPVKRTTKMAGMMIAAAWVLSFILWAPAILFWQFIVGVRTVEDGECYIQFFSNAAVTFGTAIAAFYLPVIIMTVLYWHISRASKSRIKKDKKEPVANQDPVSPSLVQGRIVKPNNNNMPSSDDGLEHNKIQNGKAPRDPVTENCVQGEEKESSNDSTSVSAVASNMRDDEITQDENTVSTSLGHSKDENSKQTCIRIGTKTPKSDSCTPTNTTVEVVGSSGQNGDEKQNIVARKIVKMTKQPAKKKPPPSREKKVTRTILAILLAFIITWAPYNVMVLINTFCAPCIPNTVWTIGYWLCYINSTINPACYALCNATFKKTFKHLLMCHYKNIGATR
Description: as §1, §2, §3, §4, §5, §6

T3 sequence (P20309 whole entry): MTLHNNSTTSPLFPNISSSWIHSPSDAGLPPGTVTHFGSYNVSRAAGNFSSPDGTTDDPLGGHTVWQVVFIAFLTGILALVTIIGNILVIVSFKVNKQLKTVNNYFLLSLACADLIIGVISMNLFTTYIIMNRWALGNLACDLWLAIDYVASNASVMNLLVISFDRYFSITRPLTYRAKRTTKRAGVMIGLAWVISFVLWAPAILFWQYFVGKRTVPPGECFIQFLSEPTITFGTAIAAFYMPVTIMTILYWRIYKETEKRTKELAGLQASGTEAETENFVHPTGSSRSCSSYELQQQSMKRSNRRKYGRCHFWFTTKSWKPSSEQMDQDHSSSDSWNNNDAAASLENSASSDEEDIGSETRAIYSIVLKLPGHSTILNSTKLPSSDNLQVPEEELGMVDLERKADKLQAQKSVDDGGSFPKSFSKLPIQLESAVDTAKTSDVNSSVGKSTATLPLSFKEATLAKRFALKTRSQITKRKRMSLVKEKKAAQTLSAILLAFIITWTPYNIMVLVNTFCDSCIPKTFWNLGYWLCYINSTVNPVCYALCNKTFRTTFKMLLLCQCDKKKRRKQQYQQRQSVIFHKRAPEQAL

Row | SMILES | Emax [1] [%] | EC50 [1] [µM] | Emax [2] [%] | EC50 [2] [µM] | Emax [3] [%] | EC50 [3] [µM] | Emax [4] [%] | EC50 [4] [µM] | M4 Efficacy [1] | M1 Efficacy [2] | M3 Efficacy [3] | M2 Efficacy [4]
1 | c1ccc2c(c1)C1OCCC1CC21CCN(C2CCCCC2)CC1 (stereo not drawn) [Compound 26] | < 25 | < 2 | 25 to 100 | > 5 | < 25 | > 5 | < 25 | > 5 |  |  |  | 
2 | CN1C(=O)C[C@@H]2CC3(CCN(C4CCCCC4)CC3)c3ccccc3[C@@H]21 [Compound 23] | 25 to 100 | < 2 | 25 to 100 | < 2 | < 25 | > 5 | 25 to 100 | < 2 |  |  |  | 
3 | O=C1C[C@@H]2[C@H](N1)c1ccccc1C21CCN(C2CCCCC2)CC1 [Compound 31] | 25 to 100 | < 2 | 25 to 100 | < 2 | < 25 | > 5 | < 25 | 2 to 5 |  |  |  | 
4 | CCOC(=O)N1CCC(N2CCC3(CC2)C[C@H]2CC(=O)N[C@H]2c2ccccc23)CC1 [Compound 9] | 25 to 100 | < 2 | 25 to 100 | < 2 | 25 to 100 | < 2 | 25 to 100 | < 2 |  |  |  | 
5 | CCOC(=O)N1CCC(N2CCC3(CC2)CC2CCOC2c2ccccc23)CC1 (stereo not drawn) [Compound 2] | 25 to 100 | < 2 | 25 to 100 | < 2 | < 25 | > 5 | 25 to 100 | < 2 |  |  |  | 
6 | COCCN1C(=O)C[C@@H]2CC3(CCN(C4CCCCC4)CC3)c3ccccc3[C@@H]21 [Compound 16] | 25 to 100 | < 2 | < 25 | > 5 | < 25 | > 5 | < 25 | > 5 |  |  |  | 
7 | O=C1CC2CC3(CCN(C4CC5CCC(C5)C4)CC3)c3ccccc3C2O1 (stereo not drawn) [Compound 28] | 25 to 100 | < 2 | 25 to 100 | < 2 | < 25 | > 5 | < 25 | > 5 |  |  |  | 
8 | CN1C(=O)C[C@@H]2CC3(CCN(C4CC5CCC(C5)C4)CC3)c3ccccc3[C@@H]21 (stereo partly drawn) [Compound 15] | 25 to 100 | < 2 | 25 to 100 | 2 to 5 | < 25 | > 5 | < 25 | > 5 |  |  |  | 
9 | O=C1CC2CC3(CCN(CC4CCCCC4)CC3)c3ccccc3C2O1 (stereo not drawn) [Compound 18] | 25 to 100 | < 2 | 25 to 100 | < 2 | < 25 | > 5 | 25 to 100 | > 5 |  |  |  | 
10 | CCOC(=O)N1CCC(N2CCC3(CC2)C[C@H]2CC(=O)N[C@H]2c2ccccc23)CC1 [Compound 17] |  | < 2 |  | < 2 |  | > 5 |  | < 2 | ++ (efficacy was calculated to be from 100% to 25%) | ++ (efficacy was calculated to be from 100% to 25%) | + (efficacy was calculated to be less than 25%) | ++ (efficacy was calculated to be from 100% to 25%)
11 | c1ccc2c(c1)C1OCCC1CC21CCN(CC2CCCCC2)CC1 (stereo not drawn) [Compound 14] | 25 to 100 | < 2 | 25 to 100 | > 5 | < 25 | > 5 | < 25 | > 5 |  |  |  | 
12 | O=C1C[C@@H]2CC3(CCN(C4CCCCC4)CC3)c3ccccc3[C@@H]2N1 [Compound 19] |  | < 2 |  | < 2 |  | > 5 |  | 2 to 5 | ++ (efficacy was calculated to be from 100% to 25%) | ++ (efficacy was calculated to be from 100% to 25%) | + (efficacy was calculated to be less than 25%) | ++ (efficacy was calculated to be from 100% to 25%)
13 | c1ccc2c(c1)C1OCCC1CC21CCN(C2CCCCCC2)CC1 (stereo not drawn) [Compound 11] | 25 to 100 | < 2 | 25 to 100 | 2 to 5 | < 25 | > 5 | < 25 | > 5 |  |  |  | 
14 | O=C1C[C@@H]2[C@H](N1)c1ccccc1C21CCN(C2C[C@H]3CC[C@@H]2C3)CC1 (stereo partly drawn) [Compound 32] | 25 to 100 | < 2 | 25 to 100 | 2 to 5 | < 25 | > 5 | 25 to 100 | 2 to 5 |  |  |  | 
15 | O=C1C[C@@H]2CC3(CCN(C4CCCCC4)CC3)c3ccccc3[C@@H]2N1 [Compound 7] | 25 to 100 | < 2 | 25 to 100 | < 2 | < 25 | > 5 | 25 to 100 | < 2 |  |  |  | 
